Data reported in patent publication US20240173403A1, “Combination of AXL Antibodies and ACE Inhibitors in the Treatment of Fibrosis” (BERGENBIO ASA, priority 2021, published 2024).
“Also recorded” adds a separate entry of the source. Like-named read-outs stand apart in the source and are kept apart here.

What was measured:
TIMP-1 = TIMP-1 levels in human PCKS culture supernatants (ELISA); assay type: cell-based
Protocol: (§1) PCKS were prepared from explanted kidney tissue and rested for 24 hours to allow the post-slicing stress period to elapse before experiments began. All PCKS were harvested at 96 hrs.
(§2) PCKS were incubated for a 24 hr rest period. Post-rest, PCKS were incubated for a further 72 hrs in the presence or absence of inhibitors. PCKS culture media, including all compounds, was refreshed and harvested at 24 hrs intervals. All PCKS were harvested at 96 hrs.
(§3) Tissue culture supernatant (n=3 paired wells) were collected every 24 hrs and snap frozen for quantification of soluble outputs. At 96 hrs n=4 PCKS were snap frozen for RNA extraction and n=2 PCKS were formalin fixed paraffin embedded (FFPE) for IHC.
(§4) Levels of collagen 1a1, IL-6, Hyaluronic Acid and TIMP-1 in the tissue culture supernatants (n=165 samples per donor) were quantified using R&D Duoset ELISA kits.

Collagen 1a1 = Collagen 1a1 levels in human PCKS culture supernatants (ELISA); assay type: cell-based
Protocol: as §1, §2, §3, §4
Levels of collagen 1a1 in the tissue culture supernatants were quantified using R&D Duoset ELISA kits.

IL-6 = IL-6 levels in human PCKS culture supernatants (ELISA); assay type: cell-based; conditions: two of the high doses of Bemcentinib; early time point (48 hrs)
Protocol: as §1, §2, §3, §4

kidney fibrosis = conditions: UUO mice, bemcentinib monotherapy, Landolt et al. 2019, cited from earlier work
lung fibrosis = conditions: two mouse lung fibrosis models; Espindola et al. 2018; cited from earlier work
[1] = system: αSMA (activated myofibroblasts); assay: α-SMA staining of PCKS sections, % area positive; assay type: cell-based, human; conditions: 96 hrs harvest
Protocol: as §1, §3
FFPE tissue was cut into 5 μm sections and stained for Picrosirius Red and α-Smooth Muscle Actin (αSMA) (n=19 samples per donor). Analysis was performed by a pathology trained technical staff member without knowledge of the sample ID. High magnification images were taken of each slide and analysed for the surface area covered by the stain (e.g. percentage area positive for Oil Red O, Picrosirius or αSMA).
α-SMA stained PCKS sections were prepared. Up to 25 high magnification images (×20) from each PCKS were quantified for the percentage area of tissue positive for stain and averaged to give a mean tissue area positive for α-SMA.
Histological effects of treatments were assessed on the basis of changes in percentage positive area stained for αSMA (activated myofibroblasts) and Picrosirius Red (collagen deposition).

liver fibrosis = conditions: mice; Barcena et al. 2015; cited from earlier work
Hyaluronic Acid = Hyaluronic Acid levels in human PCKS culture supernatants (ELISA); assay type: cell-based; conditions: Nintedanib 4 μM
Protocol: as §1, §2, §3, §4

[2] = Enalapril alone (0.75, 0.15 μM)
[3] = 4 μM, 72 hrs and 96 hrs of treatment, positive control
[4] = Tilvestamab monotherapy (1 to 125 μg/mL)

Molecule: Nc1nc(Nc2ccc3c(c2)CC[C@@H](N2CCCC2)CC3)nn1-c1cc2c(nn1)-c1ccccc1CCC2 [Bemcentinib, 1-(6,7-dihydro-5H-benzo[6,7]cyclohepta[1,2-c]pyridazin-3-yl)-N^3-((7-(S)-pyrrolidin-1-yl)-6,7,8,9-tetrahydro-5H-benzo[7]annulene-2-yl)-1H-1,2,4-triazole-3,5-diamine]
- TIMP-1 production (TIMP-1; Bemcentinib monotherapy, all doses (0.11, 0.33, 1, 3 μM)): able to reduce production of the fibrotic markers Collagen 1a1 and TIMP-1 at all doses
- Collagen 1a1 production (Collagen 1a1; Bemcentinib monotherapy, all doses (0.11, 0.33, 1, 3 μM), not dose dependent): able to reduce production of the fibrotic markers Collagen 1a1 and TIMP-1 at all doses
- IL-6 secretion (IL-6): spike in IL-6 secretion
- fibrosis development in kidney (kidney fibrosis): attenuate fibrosis and reduce inflammation
- fibrosis development in kidney (kidney fibrosis; listed as bemcentinib): less fibrosis development
- fibrosis development in lung (lung fibrosis): reduction in fibrosis development
- αSMA, percentage positive area ([1]; Bemcentinib singly, 3 μM): reduce expression of the fibrotic marker αSMA; also recorded: reduced
- liver fibrosis (liver fibrosis): reduced liver fibrosis

Molecule: CCOC(=O)[C@H](CCc1ccccc1)N[C@@H](C)C(=O)N1CCC[C@H]1C(=O)O [Enalapril]
- TIMP-1 secretion (TIMP-1; [2]): did not show any efficacy towards reducing TIMP-1 secretion
- Collagen 1a1 secretion (Collagen 1a1; [2]): did not show any efficacy towards reducing Collagen 1a1 secretion
- αSMA, percentage positive area ([1]; Enalapril singly, 0.15 μM): reduced
- αSMA, percentage positive area ([1]; Enalapril singly, 0.15 μM, listed as Enalaril): reduce expression of the fibrotic marker αSMA

Molecule: COC(=O)c1ccc2c(c1)NC(=O)/C2=C(\Nc1ccc(N(C)C(=O)CN2CCN(C)CC2)cc1)c1ccccc1 [Nintedanib]
- TIMP-1 production (TIMP-1; [3]): significantly inhibit TIMP-1 production
- Collagen 1a1 production (Collagen 1a1; [3]): inhibited Collagen 1a1 production
- Hyaluronic acid (Hyaluronic Acid): readily reduced

B1: Tilvestamab: novel humanized anti-AXL antibody that blocks GAS6-mediated AXL receptor activation; VH SEQ ID No.1, VL SEQ ID No.2 (antibody, V domains shown)
VH: EVQLVESGGGLVQPGGSLRLSCAASGYSFTDFYINWVRQAPGKGLEWVARIFPGGDNTYYNEKFKGRFTLSADTSKSTAYLQMNSLRAEDTAVYYCARRGLYYAMDYWGQGTLVTVSS
VL: DIQMTQSPSSLSASVGDRVTITCRSSQSLVHSNGIPYLHWYQQKPGKAPKLLIYRVSNRFSGVPSRFSGSGSGTDFTLTISSLQPEDFATYYCSQGTHVPPTFGQGTKVEIK
modifications: BGB149 VH; BGB149 VL
- TIMP-1 secretion (TIMP-1; [4]): no effect on reducing Collagen 1a1 or TIMP-1 secretion; also recorded: no effect on reducing TIMP-1 secretion
- Collagen 1a1 secretion (Collagen 1a1; [4]): no effect on reducing Collagen 1a1 or TIMP-1 secretion; also recorded: no effect on reducing Collagen 1a1 secretion
- αSMA, percentage positive area ([1]; Tilvestamab singly, three of the highest doses): did reduce αSMA; also recorded: reduced
